Measurements taken from patent publication US20140243375A1, “ISOXAZOLINE DERIVATIVES AS INSECTICIDAL COMPOUNDS” (Syngenta Participations AG, priority 2011, published 2014).

Legend:
Assay type in all cases: in vivo
Thrips tabaci = Thrips tabaci (onion thrips) sunflower leaf disc spray test; settings: foliar, 168 h, application rate 200 ppm, sprayed sunflower leaf discs, mixed ages, mortality after 7 days
Experimental: This Example illustrates the pesticidal/insecticidal properties of compounds of formula (I). Tests were performed as follows: Thrips Tabaci (Onion Thrips): Sunflower leaf discs were placed on agar in a 24-well microtiter plate and sprayed with test solutions at an application rate of 200 ppm. After drying, the leaf discs were infested with a thrips population of mixed ages. After an incubation period of 7 days, samples were checked for mortality.

Heliothis virescens = Heliothis virescens (tobacco budworm) egg test on artificial diet; settings: 96 h, application rate 200 ppm (concentration in well 18 ppm), eggs on artificial diet, egg mortality, larval mortality, growth regulation after 4 days
Experimental: This Example illustrates the pesticidal/insecticidal properties of compounds of formula (I). Tests were performed as follows: Heliothis virescens (Tobacco Budworm): Eggs (0-24 h old) were placed in 24-well microtiter plate on artificial diet and treated with test solutions at an application rate of 200 ppm (concentration in well 18 ppm) by pipetting. After an incubation period of 4 days, samples were checked for egg mortality, larval mortality, and growth regulation.

Plutella xylostella = Plutella xylostella (diamond back moth) L2 larvae test on artificial diet; settings: 144 h, application rate 200 ppm (concentration in well 18 ppm), larval mortality and growth regulation after 6 days
Experimental: This Example illustrates the pesticidal/insecticidal properties of compounds of formula (I). Tests were performed as follows: Plutella xylostella (Diamond Back Moth): 24-well microtiter plate (MTP) with artificial diet was treated with test solutions at an application rate of 200 ppm (concentration in well 18 ppm) by pipetting. After drying, the MTP's were infested with L2 larvae (7-12 per well). After an incubation period of 6 days, samples were checked for larval mortality and growth regulation.

Diabrotica balteata = Diabrotica balteata (corn root worm) L2 larvae test on artificial diet; settings: 120 h, application rate 200 ppm (concentration in well 18 ppm), larval mortality and growth regulation after 5 days
Experimental: This Example illustrates the pesticidal/insecticidal properties of compounds of formula (I). Tests were performed as follows: Diabrotica balteata (Corn Root Worm): A 24-well microtiter plate (MTP) with artificial diet was treated with test solutions at an application rate of 200 ppm (concentration in well 18 ppm) by pipetting. After drying, the MTP's were infested with L2 larvae (6-10 per well). After an incubation period of 5 days, samples were checked for larval mortality and growth regulation.

Spodoptera littoralis = Spodoptera littoralis (Egyptian cotton leafworm) cotton leaf disc spray test; settings: foliar, 72 h, application rate 200 ppm, sprayed cotton leaf discs, mortality, feeding behavior, growth regulation 3 days after treatment
Experimental: This Example illustrates the pesticidal/insecticidal properties of compounds of formula (I). Tests were performed as follows: Spodoptera littoralis (Egyptian Cotton Leafworm): Cotton leaf discs were placed on agar in a 24-well microtiter plate and sprayed with test solutions at an application rate of 200 ppm. After drying, the leaf discs were infested with […]. The samples were checked for mortality, feeding behavior, and growth regulation 3 days after treatment (DAT).

Tetranychus urticae = Tetranychus urticae (two-spotted spider mite) bean leaf disc spray test; settings: foliar, 192 h, application rate 200 ppm, sprayed bean leaf discs, mixed ages, egg, larval and adult mortality 8 days later
Experimental: This Example illustrates the pesticidal/insecticidal properties of compounds of formula (I). Tests were performed as follows: Tetranychus urticae (Two-Spotted Spider Mite): Bean leaf discs on agar in 24-well microtiter plates were sprayed with test solutions at an application rate of 200 ppm. After drying, the leaf discs are infested with mite populations of mixed ages. 8 days later, discs are checked for egg mortality, larval mortality, and adult mortality.

Measured: pest or weed control at 200 ppm

CCN1OCC(NC(=O)c2ccc(C3=NOC(c4cc(Cl)cc(Cl)c4)(C(F)(F)F)C3)cc2C)C1=O (stereo not drawn) [Compound A07]
≥ 80%: Thrips tabaci | Heliothis virescens | Plutella xylostella | Diabrotica balteata | Spodoptera littoralis | Tetranychus urticae

CCN1OCC(NC(=O)c2ccc(C3=NOC(c4cc(Cl)c(Cl)c(Cl)c4)(C(F)(F)F)C3)cc2C)C1=O (stereo not drawn) [Compound A02]
≥ 80%: Thrips tabaci | Heliothis virescens | Plutella xylostella | Diabrotica balteata | Spodoptera littoralis | Tetranychus urticae

CCN1OCC(NC(=O)c2ccc(C3=NOC(c4cc(Cl)cc(Br)c4)(C(F)(F)F)C3)cc2C)C1=O (stereo not drawn) [Compound A10]
≥ 80%: Thrips tabaci | Heliothis virescens | Plutella xylostella | Diabrotica balteata | Spodoptera littoralis | Tetranychus urticae

Cc1cc(C2=NOC(c3cc(Cl)cc(Br)c3)(C(F)(F)F)C2)ccc1C(=O)NC1CON(CC(F)(F)F)C1=O (stereo not drawn) [Compound A25]
≥ 80%: Thrips tabaci | Heliothis virescens | Plutella xylostella | Diabrotica balteata | Spodoptera littoralis | Tetranychus urticae

CCN1OCC(NC(=O)c2ccc(C3=NOC(c4cc(Cl)c(F)c(Cl)c4)(C(F)(F)F)C3)cc2C)C1=O (stereo not drawn) [Compound A04]
≥ 80%: Thrips tabaci | Heliothis virescens | Plutella xylostella | Diabrotica balteata | Spodoptera littoralis | Tetranychus urticae

Cc1cc(C2=NOC(c3cc(Cl)c(Cl)c(Cl)c3)(C(F)(F)F)C2)ccc1C(=O)NC1CON(CC(F)(F)F)C1=O (stereo not drawn) [Compound A16]
≥ 80%: Thrips tabaci | Heliothis virescens | Plutella xylostella | Diabrotica balteata | Spodoptera littoralis | Tetranychus urticae

Cc1cc(C2=NOC(c3cc(Cl)cc(Cl)c3)(C(F)(F)F)C2)ccc1C(=O)NC1CON(CC(F)(F)F)C1=O (stereo not drawn) [Compound A22]
≥ 80%: Thrips tabaci | Heliothis virescens | Plutella xylostella | Diabrotica balteata | Spodoptera littoralis | Tetranychus urticae

CCN1OCC(NC(=O)c2ccc(C3=NOC(c4cc(Cl)cc(C(F)(F)F)c4)(C(F)(F)F)C3)cc2C)C1=O (stereo not drawn) [Compound A12]
≥ 80%: Thrips tabaci | Heliothis virescens | Plutella xylostella | Diabrotica balteata | Spodoptera littoralis | Tetranychus urticae

Cc1cc(C2=NOC(c3cc(Cl)cc(Cl)c3)(C(F)(F)F)C2)ccc1C(=O)NC1CON(C)C1=O (stereo not drawn) [Compound A01]
≥ 80%: Thrips tabaci | Heliothis virescens | Plutella xylostella | Diabrotica balteata | Spodoptera littoralis | Tetranychus urticae

Cc1cc(C2=NOC(c3cc(Cl)cc(Cl)c3)(C(F)(F)F)C2)ccc1C(=O)NC1CON(CC(F)F)C1=O (stereo not drawn) [Compound A15]
≥ 80%: Thrips tabaci | Heliothis virescens | Plutella xylostella | Diabrotica balteata | Spodoptera littoralis | Tetranychus urticae

Cc1cc(C2=NOC(c3cc(Cl)c(F)c(Cl)c3)(C(F)(F)F)C2)ccc1C(=O)NC1CON(CC(F)(F)F)C1=O (stereo not drawn) [Compound A20]
≥ 80%: Thrips tabaci | Heliothis virescens | Plutella xylostella | Diabrotica balteata | Spodoptera littoralis | Tetranychus urticae
